Assay results taken from patent publication US20250223560A1, “NOX4 INHIBITOR COMPOSITIONS AND METHODS FOR REGENERATION OF DYSTROPHIC MUSCLE” (FULCRUM THERAPEUTICS, INC., priority 2022, published 2025).
Where two headings read alike, the source gives them in different places.

Legend:
[1] = as described; cited from earlier work
[2] = test system: Bone Marrow Derived Mesenchymal Stem Cells, human (BM-MSC); myofibroblast content; experiment: Myofibroblast reduction phenotype in TGF-beta-1 fibrogenic differentiation culture (high-content imaging); type: cell-based
Protocol: (§1) Bone Marrow Derived Mesenchymal Stem Cells, human (BM-MSC, ATCC PCS-500-012) were cultured in medium composed of Mesenchymal Stem Cell Basal Medium foe Adipose, Umbilcal and Bone Marrow-derived MSCs (ATCC PCS-400030 and Mesenchymal Stem Cell Growth for Bone Marrow-derived MSCs (ATCC PCS-500-041). Cells were seeded at a density of 15,000 cells/well in a 96-well format.
(§2) To induce fibrogenic differentiation BM-MSCs were cultured in a medium composed by Dulbecco's Modified Eagle Medium, 2% horse serum (HS) (Sigma H1270) and 5-10 ng/ml TGF-beta-1 (PreproTech 100-21). Cells were cultured in basal media for 2 days before being switched to fibrogenic differentiation media for 5 days, after which they were taken down for downstream assays. Compound treatment was added when media was switched to fibrogenic differentiation media, cells were treated with 0.1% DMSO if not receiving compound.
(§3) Cells were fixed in 4% PFA for 10 min at RT. Fixed cells were washed three times in 1×PBS and incubated in permeabilization solution (0.5% Triton X-100 in 1×PBS) for 10 min. Unspecific binding were saturated by incubating samples in blocking solution (5% donkey serum in 1×PBS) for 1 h. The cells were incubated at RT for 1 hour with gentle shaking in the presence of primary antibody against, alpha-smooth muscle actin (1:1000, Sigma™ A5228). The cells were washed three times with 0.05% Tween-20 in 1×PBS and incubated, for 1 hour at RT, with host-specific secondary antibodies in addition to counterstaining for Alexa Fluor Plus 750 Phalloidin (1:2000, Invitrogen™, A30105) and DAPI (1:2000). Primary and secondary antibodies were diluted according to the manufacturer's recommendations in blocking solution+0.1% Triton X-100. Finally, the cells were washed three times with 0.05% Tween-20 in 1×PBS, washed twice with 1×PBS and stored at 4° C. Images were acquired on a Thermo Scientific™ CellInsight™ CX7LED high content analysis (HCA) imaging instrument using a 10× objective. Nine fields per well were captured for quantification.
Columbus™ software (version 2.9.1, Perkin Elmer®) was used for analysis of acquired images. A custom analysis pipeline was constructed to quantify the percentage of myofibroblasts within the well. First, nuclei were segmented using “Method B” and intensity and morphology properties were calculated using standard settings. Second, viable nuclei were identified by gating on nuclei intensity, area, and roundness of the segmented objects. Next, a region of interest was then defined around the selected viable nuclei by expanding the outer boarder by […]. STAR morphology and SER texture properties were calculated within the region of interest for the alpha-smooth muscle actin and phalloidin channels using the following parameters: profile width=4 px, scale=1 px, Kernel normalization. The calculated morphology and texture properties were used to train a linear classifier consisting of two classes, myofibroblasts and mesenchymal stem cells, by selecting >100 objects in each negative control (DMSO) and positive control (fibrogenic differentiation media) conditions. The linear classifier was then applied to the untrained test wells using a batch analysis to calculate the percentage of myofibroblasts within each image using a formula output (myofibroblasts:number of objects/viable nuclei:number of objects)*100. Results were averaged across the nine fields imaged per well.
The initial six NOX4 inhibitors were assessed in replicate experiments for both potency of myofibroblast reducing activity and an associated IC50 for the myofibroblast reduction phenotype was determined (Table 1).

[3] = test system: mesenchymal stem cells; experiment: Phalloidin (F-actin) / alpha-SMA staining of treated mesenchymal stem cells; type: cell-based, human; details: for phalloidin (F-actin) staining / α-SMA immunofluorescence and phalloidin (F-actin) staining: 1 μM; for α-SMA immunofluorescence and phalloidin (F-actin) staining: FIG. 15
Protocol: as §1, §2, §3

[4] = target: T1, NOX4 (Homo sapiens, UniProt Q9NPH5); details: cited from earlier work
T1 sequence (Q9NPH5 1-578): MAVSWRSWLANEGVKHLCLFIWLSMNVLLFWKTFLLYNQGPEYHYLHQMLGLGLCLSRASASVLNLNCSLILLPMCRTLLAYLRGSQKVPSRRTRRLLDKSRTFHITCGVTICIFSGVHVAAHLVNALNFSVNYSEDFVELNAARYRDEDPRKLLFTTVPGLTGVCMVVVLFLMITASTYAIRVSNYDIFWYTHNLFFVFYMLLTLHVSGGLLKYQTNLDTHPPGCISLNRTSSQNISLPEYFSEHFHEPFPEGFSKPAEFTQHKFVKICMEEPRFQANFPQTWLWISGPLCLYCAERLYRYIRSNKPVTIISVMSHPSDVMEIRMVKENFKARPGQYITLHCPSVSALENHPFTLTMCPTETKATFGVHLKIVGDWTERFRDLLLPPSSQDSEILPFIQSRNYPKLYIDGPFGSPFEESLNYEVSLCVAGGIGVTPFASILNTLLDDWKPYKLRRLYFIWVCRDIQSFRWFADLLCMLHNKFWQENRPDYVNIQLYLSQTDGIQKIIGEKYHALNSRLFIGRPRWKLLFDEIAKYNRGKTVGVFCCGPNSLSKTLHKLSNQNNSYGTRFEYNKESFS
T1 sequence (P13498 1-195 partner): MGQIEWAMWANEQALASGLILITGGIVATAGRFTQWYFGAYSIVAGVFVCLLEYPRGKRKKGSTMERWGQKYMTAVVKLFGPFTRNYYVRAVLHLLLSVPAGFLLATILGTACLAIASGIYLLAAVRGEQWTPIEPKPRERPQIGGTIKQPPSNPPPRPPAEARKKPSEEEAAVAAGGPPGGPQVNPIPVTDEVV

[5] = test system: myoblast-FAP co-cultures; details: 0.1 uM, 3 days of differentiation, vs DMSO
Description: The impact of NOX4 inhibition on myogenic differentiation in myoblast-FAP co-cultures was investigated using primary myoblasts isolated from wild-type, uninjured mouse muscles and FAPs isolated from cardiotoxin-injured muscles of ROSA26-tdTomato mice (such mice contain cells that constitutively express the tdTomato fluorescent marker). […] Following 3 days of differentiation, cells were fixed in 4% paraformaldehyde (PFA) and stained for myosin heavy chain (MHC; marker of myogenic differentiation).

[6] = test system: cells; details: as described in the art; cited from earlier work
[7] = Homo sapiens, BMMSC, first experiment, read-out: IC50 Phenotype (myofibroblast reduction)
[8] = Homo sapiens, BMMSC, replicate experiment, read-out: IC50 Phenotype Replicate
[9] = reported value, read-out: Reported Potency, IC50

Row | Compound | oral bioavailability [1] | IC50 [2, 7] | α-SMA immunofluorescence and phalloidin (F-actin) staining [3] | IC50 [2, 8] | other results
1 | Cc1c2c(=O)n(-c3ccccc3Cl)[nH]c2cc(=O)n1Cc1ccccn1 [FTX8018] | orally bioavailable | 0.149 µM | – | – | –
2 | CC(CNS(=O)(=O)c1ccc(C(F)(F)F)cc1)N1CCc2ccccc21 (stereo not drawn) [FTX7974] | – | 0.357 µM | exhibited both α-SMA immunofluorescence and phalloidin (F-actin) staining | 0.333 µM | phalloidin (F-actin) staining [3]: significant phalloidin staining; IC50 [4, 9]: 2 µM
3 | Cc1ccc(N2CCN(Cc3nc(N)nc(Nc4ccc(C)c(C)c4)n3)CC2)cc1 [FTX7983] | – | – | exhibited both α-SMA immunofluorescence and phalloidin (F-actin) staining | – | IC50 ([2]; Homo sapiens, BMMSC, first experiment, unit nm [sic], read-out: IC50 Phenotype (myofibroblast reduction)): 0.331 µM; IC50 ([2]; Homo sapiens, BMMSC, replicate experiment, unit nm [sic], read-out: IC50 Phenotype Replicate): 0.401 µM
4 | Cc1ccccc1CCNS(=O)(=O)c1c(Cl)cc(Br)cc1Cl [FTX7981] | – | 0.253 µM | exhibited both α-SMA immunofluorescence and phalloidin (F-actin) staining | 0.342 µM | IC50 ([4]; reported, read-out: IC50 NOX4): 0.3 µM
5 | COc1cc(NC(=O)c2ccc3cc(Cl)ccc3c2)c(C(=O)O)cc1C#N [FTX7995] | – | 0.0088 µM | exhibited both α-SMA immunofluorescence and phalloidin (F-actin) staining | 0.0109 µM | phalloidin staining ([3]; 10 nM): exhibited phalloidin staining; phalloidin staining ([3]; 100 nM and 1 μM): enhanced phalloidin staining; phalloidin (F-actin) staining [3]: significant phalloidin staining; IC50 [4, 9]: 0.002 µM
6 | c1ccc(Cn2nnc3c(Sc4nc5ccccc5o4)ncnc32)cc1 [FTX7972] | – | 0.889 µM | – | 0.898 µM | –
7 | CCCc1c(-c2ccccc2)nn(-c2ccccn2)c1O [FTX7973] | – | – | – | – | IC50 ([2]; first experiment, unit nm [sic], read-out: IC50 Phenotype (myofibroblast reduction)): 0.638 µM; IC50 ([2]; replicate experiment, unit nm [sic], read-out: IC50 Phenotype Replicate): 0.781 µM
8 | O=c1c2c3n(c(=O)cc2[nH]n1-c1ccccc1Cl)CCCN(Cc1ccccc1)C3 [FTX7990] | orally bioavailable | 0.158 µM | – | 0.149 µM | reduction of myofibroblast content (concentration-response) ([2]; treated cells in culture): dose-dependent reduction of myofibroblast content; Ki ([4]; reported value, read-out: Reported Potency, Ki): 0.07 µM
9 | c1ccc2c(c1)[I+]c1ccccc1-2 [DPI, diphenyleneiodonium chloride] | – | – | – | – | MHC-positive myocytes (number of cells per mm^2) [5]: statistically significant increase; myogenic differentiation of myoblasts (MHC staining) [5]: significantly increased
10 | CCOC(=O)c1c(NC(=O)CN2CCN(C(=O)c3ccco3)CC2)sc2c1CCC2 [FTX7971] | orally bioavailable | 4.03 µM | – | 5.21 µM | concentration of described activity in cells [6]: about 5 μM
